Legend:
AAC(6′)-Ib [1] = target: T1, AAC(6′)-Ib (Klebsiella pneumoniae, UniProt P19650); assay: AAC; format: biochemical; conditions: for inhibition of the acetylation of kanamycin A: 100 μM compound, 18 μM kanamycin A, 50 μM acetyl CoA, 10% DMSO
AAC(6′)-Ib [2] = target: T1, AAC(6′)-Ib; assay: AAC; format: biochemical; conditions: Lineweaver-Burk plots; for mode of inhibition with respect to acetyl CoA: variable acetyl CoA; for mode of inhibition with respect to kanamycin A: variable kanamycin A

T1 sequence (P19650 whole entry): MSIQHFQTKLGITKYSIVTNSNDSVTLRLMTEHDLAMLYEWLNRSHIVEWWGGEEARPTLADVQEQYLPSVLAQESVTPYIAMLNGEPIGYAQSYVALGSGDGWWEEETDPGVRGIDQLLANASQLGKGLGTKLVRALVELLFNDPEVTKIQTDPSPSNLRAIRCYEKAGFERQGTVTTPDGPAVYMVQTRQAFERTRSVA

Row | SMILES | inhibition of the acetylation of kanamycin A (AAC(6′)-Ib [1]) | mode of inhibition with respect to acetyl CoA (AAC(6′)-Ib [2]) | mode of inhibition with respect to kanamycin A (AAC(6′)-Ib [2]) | inhibitory activity in the presence of 0.01% Triton X-100 (AAC(6′)-Ib [1]; 0.01% Triton X-100, to rule out non-specific protein aggregation)
1 | O=C1C(=Cc2ccco2)C(=O)N(c2ccccc2)C(=S)N1c1ccccc1 [Compound 2c] | lack of activity |  |  | 
2 | O=C1NC(=O)N(c2ccc(Cl)cc2)C(=O)/C1=C\c1ccco1 [Compound 2b, 1-(4-chlorophenyl)-5-(2-furylmethylene)-2,4,6(1H,3H,5H)-pyrimidinetrione] | weaker inhibition |  |  | 
3 | Cc1cccc(N2C(=O)/C(=C/c3ccccc3OCc3ccc(C(=O)O)cc3)C(=O)NC2=S)c1 [Compound 1, 4-[(2-{[1-(3-methylphenyl)-4,6-dioxo-2-thioxotetrahydro-5(2H)-pyrimidinylidene]methyl}phenoxy)methyl]benzoic acid] | modest inhibition | noncompetitive | competitive | 
4 | O=C1C(=Cc2ccco2)C(=O)N(c2ccccc2)C(=O)N1c1ccccc1 [Compound 2d] | lack of activity |  |  | 
5 | O=C1/C(=C/c2ccco2)C(=O)N(c2ccc(Br)cc2)C(=S)N1c1ccccc1 [Compound 5309471] |  |  |  | did not show the same level of inhibitory activity
6 | O=C(O)c1ccccc1-c1ccc(C=C2C(=O)N(c3ccccc3)C(=S)N(c3ccccc3)C2=O)o1 [Compound 2, 2-{5-[(4,6-dioxo-1,3-diphenyl-2-thioxotetrahydro-5(2H)-pyrimidinylidene)methyl]-2-furyl}benzoic acid] | significant inhibition | noncompetitive | competitive | 

Source: paper PMC3821527 (Bioorganic & medicinal chemistry letters, 2013)
